Where a name gives a salt, the structure may show the parent alone.
biological target: LsrK (Salmonella typhimurium, UniProt Q8ZKQ6); assay: biochemical; assay type: biochemical, S. typhimurium; settings: not given
Sequence (Q8ZKQ6 whole entry): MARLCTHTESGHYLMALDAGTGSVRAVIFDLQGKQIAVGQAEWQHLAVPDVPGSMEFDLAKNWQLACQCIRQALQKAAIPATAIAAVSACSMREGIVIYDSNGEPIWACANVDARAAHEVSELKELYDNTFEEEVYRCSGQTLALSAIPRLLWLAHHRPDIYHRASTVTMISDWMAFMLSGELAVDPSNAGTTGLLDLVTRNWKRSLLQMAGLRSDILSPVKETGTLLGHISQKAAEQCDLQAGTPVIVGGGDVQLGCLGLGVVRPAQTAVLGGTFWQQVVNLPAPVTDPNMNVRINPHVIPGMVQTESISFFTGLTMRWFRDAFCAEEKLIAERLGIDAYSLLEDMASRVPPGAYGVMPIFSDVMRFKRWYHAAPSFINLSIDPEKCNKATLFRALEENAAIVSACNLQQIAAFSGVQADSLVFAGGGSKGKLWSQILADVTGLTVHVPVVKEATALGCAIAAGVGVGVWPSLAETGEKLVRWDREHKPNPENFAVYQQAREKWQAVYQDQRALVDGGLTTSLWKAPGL

Row | Structure (SMILES) | inhibition at 50 µM | IC50
1 | C[C@H]1[C@H]2CC[C@H]3[C@@H]4CC=C5C[C@@H](N(C)C)CC[C@]5(C)[C@H]4CC[C@]23CN1C [CONESSINE] | 2% | 
2 | C[C@@H]1O[C@@H](O[C@H]2CC[C@]3(C=O)[C@H]4CC[C@]5(C)[C@@H](C6=CC(=O)OC6)CC[C@]5(O)[C@@H]4CC[C@]3(O)C2)[C@H](O)[C@H](O)[C@H]1O [CONVALLATOXIN] | 1% | 
3 | COc1c2c(cc3c1OCO3)CC[N+](C)=C2 [COTARNINE CHLORIDE] | 2% | 
4 | C[C@H]1COC2=C1C(=O)C(=O)c1c2ccc2c1CCCC2(C)C [CRYPTOTANSHINONE] | 16% | 
5 | COc1cc(/C=C/C(=O)CC(=O)/C=C/c2ccc(O)c(OC)c2)ccc1O [CURCUMIN] | 1% | 
6 | NC1=NCCN1CC(=O)O [CYCLOCREATINE] | 0% | 
7 | N[C@@H]1CON=C1O [CYCLOSERINE] | 0% | 
8 | CC1(C)C(C=C(Cl)Cl)C1C(=O)OC(C#N)c1cccc(Oc2ccccc2)c1 (stereo not shown) [CYPERMETHRIN] | 3% | 
9 | CC(=O)O[C@]1(C(C)=O)CC[C@H]2[C@@H]3C=C(Cl)C4=CC(=O)[C@@H]5C[C@@H]5[C@]4(C)[C@H]3CC[C@@]21C [CYPROTERONE ACETATE] | 0% | 
10 | O=c1cccc2n1C[C@@H]1CNC[C@H]2C1 [CYTISINE] | 3% | 
11 | CN(C)/N=N/c1[nH]cnc1C(N)=O [DACARBAZINE] | 3% | 
12 | C=CC(C1=CC(=O)C=CC1=O)c1ccccc1 (stereo not shown) [DALBERGIONE] | 91% | 
13 | O=C1c2cccc(O)c2C(=O)c2c(O)cccc21 [DANTHRON] | 1% | 
14 | O=C1CN(/N=C/c2ccc(-c3ccc([N+](=O)[O-])cc3)o2)C(O)=N1 [DANTROLENE SODIUM] | 3% | 
15 | Nc1ccc(S(=O)(=O)c2ccc(N)cc2)cc1 [DAPSONE] | 0% | 
16 | NC(=O)C(c1ccccc1)(c1ccccc1)[C@@H]1CCN(CCc2ccc3c(c2)CCO3)C1 [DARIFENACIN HYDROBROMIDE] | 2% | 
17 | COc1cccc2c1C(=O)c1c(O)c3c(c(O)c1C2=O)C[C@@](O)(C(C)=O)C[C@@H]3O[C@H]1C[C@H](N)[C@H](O)[C@H](C)O1 [DAUNORUBICIN] | 2% | 
18 | CC1(C)C(=O)C=C[C@]2(C)[C@H]3CC[C@@]4(C)[C@H](c5ccoc5)OC(=O)[C@H]5O[C@]54[C@]3(C)C(=O)C[C@@H]12 [DEACETOXY-7-OXOGEDUNIN] | 2% | 
19 | CC1(C)C(=O)C=C[C@]2(C)[C@H]3CC[C@@]4(C)[C@H](c5ccoc5)OC(=O)[C@H]5O[C@]54[C@]3(C)[C@H](O)C[C@@H]12 [DEACETYLGEDUNIN] | 1% | 
20 | C[N+](C)(C)CCCCCCCCCC[N+](C)(C)C [DECAMETHONIUM BROMIDE] | 0% | 
21 | CCCCCCCCCCOc1cc2c(O)c(C(=O)OCC)cnc2cc1OCC [DECOQUINATE] | 36% | 
22 | CC(=O)N(O)CCCCCNC(=O)CCC(=O)N(O)CCCCCNC(=O)CCC(=O)N(O)CCCCCN [DEFEROXAMINE MESYLATE] | 1% | 

Row | Structure (SMILES) | inhibition at 50 µM | IC50
23 | CC(C)c1ccc2c(c1)CC[C@H]1[C@](C)(C(N)=O)CCC[C@]21C [DEHYDROABIETAMIDE] | 2% | 
24 | C[C@H](CCC(=O)O)[C@H]1CC[C@H]2[C@@H]3C(=O)C[C@@H]4CC(=O)CC[C@]4(C)[C@H]3CC(=O)[C@]12C [DEHYDROCHOLIC ACID] | 4% | 
25 | C=C(C)[C@H]1Cc2c(ccc3c(=O)c4c(oc23)COc2cc(OC)c(OC)cc2-4)O1 [DEHYDROROTENONE] | 1% | 
26 | COc1ccc2c(c1)OCc1c-2oc2cc(OC)ccc12 [DEHYDROVARIABILIN] | 1% | 
27 | CN(C)[C@@H]1C(O)=C(C(N)=O)C(=O)[C@@]2(O)C(O)=C3C(=O)c4c(O)ccc(Cl)c4[C@@H](O)[C@H]3C[C@@H]12 [DEMECLOCYCLINE HYDROCHLORIDE] | 109% | 
28 | CC[N+](CC)(CC(=O)Nc1c(C)cccc1C)Cc1ccccc1 [DENATONIUM BENZOATE] | 1% | 
29 | Nc1ncnc2c1ncn2[C@H]1C[C@H](O)[C@@H](CO)O1 [DEOXYADENOSINE] | 3% | 
30 | COc1ccc(-c2cc(C(F)F)nn2-c2ccc(S(N)(=O)=O)cc2)cc1F [DERACOXIB] | 2% | 
31 | CC1(C)O[C@@H]2C[C@H]3[C@@H]4CCC5=CC(=O)C=C[C@]5(C)[C@H]4[C@@H](O)C[C@]3(C)[C@]2(C(=O)CO)O1 [DESONIDE] | 0% | 
32 | CC(=O)OCC(=O)[C@H]1CC[C@H]2[C@@H]3CCC4=CC(=O)CC[C@]4(C)[C@H]3CC[C@]12C [DESOXYCORTICOSTERONE ACETATE] | 1% | 
33 | c1ccc2c(c1)CN1CCCC1=N2 [DESOXYPEGANINE HYDROCHLORIDE] | 0% | 
34 | CC(=O)OCC(=O)[C@@]1(O)[C@H](C)C[C@H]2[C@@H]3CCC4=CC(=O)C=C[C@]4(C)[C@@]3(F)[C@@H](O)C[C@@]21C [DEXAMETHASONE ACETATE] | 0% | 
35 | NC[C@@H]1CC[C@@H](N)[C@@H](O[C@H]2[C@H](O)[C@@H](O[C@H]3O[C@H](CO)[C@@H](O)[C@H](N)[C@H]3O)[C@H](N)C[C@@H]2N)O1 [DIBEKACIN] | 0% | 
36 | c1ccc2c(c1)sc1ccccc12 [DIBENZOTHIOPHENE] | 0% | 
37 | CCCCOC(=O)c1ccccc1C(=O)OCCCC [DIBUTYL PHTHALATE] | 0% | 
38 | Oc1ccc(Cl)cc1Cc1cc(Cl)ccc1O [DICHLOROPHENE] | 1% | 
39 | Cc1onc(-c2c(Cl)cccc2Cl)c1C(=O)N[C@@H]1C(=O)N2[C@@H]1SC(C)(C)[C@@H]2C(=O)O [DICLOXACILLIN SODIUM] | 0% | 
40 | O=c1oc2ccccc2c(O)c1Cc1c(O)c2ccccc2oc1=O [DICUMAROL] | 4% | 
41 | C/C=C(/C(=C/C)c1ccc(O)cc1)c1ccc(O)cc1 [DIENESTROL] | 2% | 
42 | CCN(CC)C(=O)N1CCN(C)CC1 [DIETHYLCARBAMAZINE CITRATE] | 1% | 
43 | O=C(O)c1cc(-c2ccc(F)cc2F)ccc1O [DIFLUNISAL] | 5% | 
44 | C[C@]12CC[C@H](O)C[C@H]1CC[C@@H]1[C@@H]2C[C@@H](O)[C@]2(C)[C@@H](C3=CC(=O)OC3)CC[C@]12O [DIGOXIGENIN] | 2% | 

Row | Structure (SMILES) | inhibition at 50 µM | IC50
45 | Cc1c(O)c(O)cc2c1CC=C1[C@@]2(C)CC[C@@]2(C)[C@@H]3C[C@](C)(C(=O)O)CC[C@]3(C)CC[C@]12C [DIHYDROCELASTROL] | 105% | 21 µM
46 | Nc1nc2c(c(=O)[nH]1)N=C(CNc1ccc(C(=O)N[C@@H](CCC(=O)O)C(=O)O)cc1)CN2 [DIHYDROFOLIC ACID] | 49% | 
47 | CCCCCC1C(=O)CCC1CC(=O)O (stereo not shown) [DIHYDROJASMONIC ACID] | 1% | 
48 | Cc1cccc2c3c(ccc12)C1=C(C(=O)C3=O)[C@@H](C)CO1 [DIHYDROTANSHINONE I] | 115% | 
49 | CN(C(=O)C(Cl)Cl)c1ccc(OC(=O)c2ccco2)cc1 [DILOXANIDE FUROATE] | 4% | 
50 | OCC(S)CS (stereo not shown) [DIMERCAPROL] | 125% | 
51 | OCCN(CCO)c1nc(N2CCCCC2)c2nc(N(CCO)CCO)nc(N3CCCCC3)c2n1 [DIPYRIDAMOLE] | 2% | 
52 | CC(CCc1ccc(O)cc1)NCCc1ccc(O)c(O)c1 (stereo not shown) [DOBUTAMINE HYDROCHLORIDE] | 3% | 
53 | COc1cc2c(cc1OC)C(=O)C(CC1CCN(Cc3ccccc3)CC1)C2 (stereo not shown) [DONEPEZIL HYDROCHLORIDE] | 2% | 
54 | NCCc1ccc(O)c(O)c1 [DOPAMINE HYDROCHLORIDE] | 2% | 
55 | COc1cc2nc(N3CCN(C(=O)C4COc5ccccc5O4)CC3)nc(N)c2cc1OC (stereo not shown) [DOXAZOSIN MESYLATE] | 0% | 
56 | C[C@H]1O[C@@H](n2cc(F)c(=O)[nH]c2=O)[C@H](O)[C@@H]1O [DOXIFLURIDINE] | 1% | 
57 | C[C@H]1c2cccc(O)c2C(=O)C2=C(O)[C@]3(O)C(=O)C(C(N)=O)=C(O)[C@@H](N(C)C)[C@@H]3[C@@H](O)[C@@H]21 [DOXYCYCLINE HYDROCHLORIDE] | 106% | 
58 | CCN(CC)CCOC(=O)C(c1ccccc1)C1CCCCC1 (stereo not shown) [DROFENINE HYDROCHLORIDE] | 0% | 
59 | CNCC[C@H](Oc1cccc2ccccc12)c1cccs1 [DULOXETINE HYDROCHLORIDE] | 1% | 
60 | CCCCOc1ccc(C(=O)CCN2CCCCC2)cc1 [DYCLONINE HYDROCHLORIDE] | 131% | 
61 | Cn1c(=O)c2c(ncn2CC(O)CO)n(C)c1=O (stereo not shown) [DYPHYLLINE] | 1% | 
62 | COc1cc(C)c(C(=O)Oc2cc(C)c(C(=O)O)c(O)c2C)c(OC)c1C [D[…]] | 35% | 
63 | O=c1c2ccccc2[se]n1-c1ccccc1 [EBSELEN] | 6% | 
64 | CCc1cn([C@H]2C[C@H](O)[C@@H](CO)O2)c(=O)[nH]c1=O [EDOXUDINE] | 0% | 
65 | CC[N+](C)(C)c1cccc(O)c1 [EDROPHONIUM CHLORIDE] | 0% | 
66 | O=c1oc2c(O)c(O)cc3c(=O)oc4c(O)c(O)cc1c4c23 [ELLAGIC ACID] | 7% | 

same assay, conditions: 50 µM

Row | Structure (SMILES) | Inhibition (%)
67 | COC(=O)[C@H]1[C@H]2C[C@H]3c4[nH]c5ccccc5c4CCN3C[C@@H]2CC[C@@H]1O [CORYNANTHINE] | 2
68 | CC(=O)Oc1c(C)cccc1C(=O)O [CRESOPIRINE] | 1
69 | Cl.NCCS [CYSTEAMINE HYDROCHLORIDE] | 19
70 | C=CC(C1=CC(=O)C(OC)=CC1=O)c1ccc(O)cc1 (stereo not shown) [DALBERGIONE. 4-METHOXY-4'-HYDROXY-] | 90
71 | CC(=O)O[C@@H]1C[C@H]2C(C)(C)C(=O)C=C[C@]2(C)[C@H]2CC[C@]3(C)C(=CC(=O)O[C@H]3c3ccoc3)[C@@]21C [DEOXYGEDUNIN] | 0
72 | CC(=O)O[C@H]1C[C@@H](OC(C)=O)C(C)(C)[C@@H]2C[C@@H](OC(C)=O)[C@@]3(C)C4=CC(=O)O[C@@H](c5ccoc5)[C@]4(C)CC[C@@H]3[C@@]12C [DEOXYKHIVORIN] | 1
73 | C=C[C@@]1(C)CC(=O)[C@@]2(O)[C@](C)(O1)[C@@H](O)[C@@H](O)C1C(C)(C)CC[C@H](O)[C@@]12C (stereo partly shown) [DESACETYLCOLFORSIN] | 1
74 | CC(=O)Oc1cccc2c1C(=O)c1c(OC(C)=O)cc(C(=O)O)cc1C2=O [DIACERIN] | 0
75 | Cc1c(N(C)CS(=O)(=O)[O-])c(=O)n(-c2ccccc2)n1C.[Na+] [DIPYRONE] | 2

Reference: paper PMC6627609, “Targeting Quorum Sensing: High-Throughput Screening to Identify Novel LsrK Inhibitors” (International Journal of Molecular Sciences, 2019)
